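Five compound concentrations were applied to cells in 96-well plates for 48 hours; endpoints were derived by simple linear interpolation of the resulting dose-response curve. Abbreviation: GI50, concentration required for 50% inhibition of growth.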 Calls of active or inactive are those of the source. Rule as the data show it: active = GI50 up to about 1.1 µM and inactive = higher.
Tests used:
Experiment in all cases: NCI tumour cell line growth inhibition, 48 h
SNB-75 = system: SNB-75
SK-MEL-5 = system: SK-MEL-5
HOP-92 = system: HOP-92
SK-MEL-28 = system: SK-MEL-28
UACC-62 = system: UACC-62
NCI-H460 = system: NCI-H460
ACHN = system: ACHN
OVCAR-4 = system: OVCAR-4
CCRF-CEM = system: CCRF-CEM
HT-29 = system: HT-29
K562 = system: K562
SF-539 = system: SF-539
M14 = system: M14
OVCAR-8 = system: OVCAR-8
SF-295 = system: SF-295
MDA-N = system: MDA-N
NCI-H23 = system: NCI-H23
RXF 393 = system: RXF 393

Row | SMILES | GI50 (SNB-75) | GI50 (SK-MEL-5) | GI50 (HOP-92) | GI50 (SK-MEL-28) | GI50 (UACC-62) | GI50 (NCI-H460) | GI50 (ACHN) | GI50 (OVCAR-4) | GI50 (CCRF-CEM) | GI50 (HT-29) | GI50 (K562) | GI50 (SF-539) | GI50 (M14) | GI50 (OVCAR-8) | GI50 (SF-295) | GI50 (MDA-N) | GI50 (NCI-H23) | GI50 (RXF 393)
1 | COc1ccc(N(CN2C(=O)CCC2C(=O)O)C(C)=O)cc1 (configuration not stated) | > 100 µM (inactive) | > 100 µM (inactive) | > 100 µM (inactive) | > 100 µM (inactive) | > 100 µM (inactive) | > 100 µM (inactive) | > 100 µM (inactive) | > 100 µM (inactive) | > 100 µM (inactive) | > 100 µM (inactive) | > 100 µM (inactive) | > 100 µM (inactive) | > 100 µM (inactive) | > 100 µM (inactive) | > 100 µM (inactive) | > 100 µM (inactive) | > 100 µM (inactive) | –
2 | N#CC(C(=O)c1ccccc1F)c1nc2cc(C(F)(F)F)ccc2s1 (configuration not stated) | 14.6 µM (inactive) | 20.8 µM (inactive) | 19.1 µM (inactive) | 29.4 µM (inactive) | – | 30.1 µM (inactive) | 27.5 µM (inactive) | 31.3 µM (inactive) | – | 17.6 µM (inactive) | – | 33.4 µM (inactive) | – | 31.6 µM (inactive) | 14.3 µM (inactive) | – | 19.7 µM (inactive) | 24 µM (inactive)
3 | COC(=O)C1c2cc3c(c(O)c2CCC1(C)O)C(=O)c1c(O)cc2c(c1C3=O)OC1OC2(C)C(O)C(N(C)C)C1O (configuration not stated) | 0.198 µM (active) | 0.385 µM (active) | – | 3.15 µM (inactive) | 0.421 µM (active) | 0.452 µM (active) | 0.172 µM (active) | 0.158 µM (active) | – | 0.205 µM (active) | 0.223 µM (active) | 1.4 µM (inactive) | 1.75 µM (inactive) | 0.101 µM (active) | 0.382 µM (active) | – | 0.562 µM (active) | 0.205 µM (active)
4 | COC1OC(=O)C(OC)C(OC)C1OC (configuration not stated) | > 100 µM (inactive) | > 100 µM (inactive) | > 100 µM (inactive) | > 100 µM (inactive) | > 100 µM (inactive) | > 100 µM (inactive) | > 100 µM (inactive) | > 100 µM (inactive) | – | > 100 µM (inactive) | > 100 µM (inactive) | > 100 µM (inactive) | > 100 µM (inactive) | 88.3 µM (inactive) | > 100 µM (inactive) | > 100 µM (inactive) | – | –
5 | COc1ccc(/C=N/CCC/N=C/c2ccc(OC)cc2O)c(O)c1 | 13.9 µM (inactive) | – | 17.6 µM (inactive) | 41 µM (inactive) | 27 µM (inactive) | > 100 µM (inactive) | 48.6 µM (inactive) | 36.8 µM (inactive) | 29.6 µM (inactive) | 97.3 µM (inactive) | 69 µM (inactive) | – | 75.3 µM (inactive) | 35.6 µM (inactive) | 17.7 µM (inactive) | – | > 100 µM (inactive) | > 100 µM (inactive)
6 | CC1(C)S[C@@H]2[C@H](N3C(=O)c4ccccc4C3=O)CN2[C@H]1NC(=O)N[C@@H]1N2C[C@@H](N3C(=O)c4ccccc4C3=O)[C@H]2SC1(C)C | 58.2 µM (inactive) | > 100 µM (inactive) | 42.2 µM (inactive) | > 100 µM (inactive) | > 100 µM (inactive) | > 100 µM (inactive) | > 100 µM (inactive) | > 100 µM (inactive) | > 100 µM (inactive) | > 100 µM (inactive) | > 100 µM (inactive) | 55.1 µM (inactive) | > 100 µM (inactive) | 58.3 µM (inactive) | 75.7 µM (inactive) | – | > 100 µM (inactive) | 45.3 µM (inactive)
7 | CC1(C)CC(=O)C(CC(C(=O)C(=O)Nc2cc(C(F)(F)F)ccc2Cl)C(=O)c2ccco2)C(=O)C1 (configuration not stated) | – | > 100 µM (inactive) | > 100 µM (inactive) | > 100 µM (inactive) | > 100 µM (inactive) | > 100 µM (inactive) | > 100 µM (inactive) | > 100 µM (inactive) | > 100 µM (inactive) | > 100 µM (inactive) | > 100 µM (inactive) | > 100 µM (inactive) | > 100 µM (inactive) | > 100 µM (inactive) | > 100 µM (inactive) | > 100 µM (inactive) | > 100 µM (inactive) | –
8 | O=C(/C=C/c1ccc2ccccc2c1)NCc1ccc(C(=O)NCc2ccccc2)cc1 | 19.6 µM (inactive) | 98.9 µM (inactive) | > 100 µM (inactive) | > 100 µM (inactive) | 97.9 µM (inactive) | – | > 68.7 µM (inactive) | 8.53 µM (inactive) | > 93.3 µM (inactive) | 35.7 µM (inactive) | > 31.6 µM (inactive) | 27.5 µM (inactive) | > 100 µM (inactive) | 30.4 µM (inactive) | 34.4 µM (inactive) | – | > 83.4 µM (inactive) | 41.8 µM (inactive)
9 | CN(C)C1(N(C)C)Oc2c(c(=O)n(C)c(=O)n2C)C(c2ccc(C(F)(F)F)cc2)C1(F)F (configuration not stated) | > 100 µM (inactive) | > 100 µM (inactive) | > 100 µM (inactive) | > 100 µM (inactive) | > 100 µM (inactive) | > 100 µM (inactive) | > 100 µM (inactive) | > 100 µM (inactive) | > 100 µM (inactive) | – | > 100 µM (inactive) | – | > 100 µM (inactive) | – | > 100 µM (inactive) | – | > 100 µM (inactive) | > 100 µM (inactive)
10 | CSc1nc(-c2ccccc2)[nH]c(=O)n1 | – | > 100 µM (inactive) | > 100 µM (inactive) | > 100 µM (inactive) | > 100 µM (inactive) | – | > 100 µM (inactive) | > 100 µM (inactive) | > 100 µM (inactive) | > 100 µM (inactive) | – | > 100 µM (inactive) | > 100 µM (inactive) | > 100 µM (inactive) | > 100 µM (inactive) | – | > 100 µM (inactive) | > 100 µM (inactive)
11 | O=C(O)Cc1ccc(Oc2nc3ccccc3nc2C(=O)O)cc1 | > 100 µM (inactive) | > 100 µM (inactive) | 79.1 µM (inactive) | > 100 µM (inactive) | > 100 µM (inactive) | > 100 µM (inactive) | > 100 µM (inactive) | > 100 µM (inactive) | > 100 µM (inactive) | > 100 µM (inactive) | 0.0849 µM (active) | > 100 µM (inactive) | > 100 µM (inactive) | > 100 µM (inactive) | > 100 µM (inactive) | – | > 100 µM (inactive) | –
12 | CC(=O)c1cc(C)n2c1CS[C@@H]2c1ccccc1 | 65.8 µM (inactive) | 32.2 µM (inactive) | 20.2 µM (inactive) | > 100 µM (inactive) | – | – | 68.2 µM (inactive) | 59.7 µM (inactive) | 16.3 µM (inactive) | 46.3 µM (inactive) | 31.6 µM (inactive) | – | > 100 µM (inactive) | 70.8 µM (inactive) | 65.9 µM (inactive) | – | 65.6 µM (inactive) | 31.5 µM (inactive)
13 | O=C(NCCNCCO)N/N=C/c1ccc([N+](=O)[O-])cc1 | 21.7 µM (inactive) | > 100 µM (inactive) | – | > 100 µM (inactive) | > 100 µM (inactive) | > 100 µM (inactive) | > 100 µM (inactive) | – | > 100 µM (inactive) | > 100 µM (inactive) | > 100 µM (inactive) | > 100 µM (inactive) | > 100 µM (inactive) | > 100 µM (inactive) | > 100 µM (inactive) | 61.4 µM (inactive) | > 100 µM (inactive) | –

— ChEMBL document CHEMBL1201862, “PubChem BioAssay data set” (2004)
